Experimental data taken from patent publication US20120321647A1, “STRUCTURED RNA MOTIFS AND COMPOUNDS AND METHODS FOR THEIR USE” (YALE UNIVERSITY, priority 2010, published 2012).
Where “and” joins values, the source holds several entries; their conditions need not be identical. Equal values may be shown once. Read-outs that look alike come from different tables or passages of the source. Peptide text beside a SMILES is read from it.

Tests used:
[1] = test system: 67 glnA RNA; experiment: In-line probing of 67 glnA RNA; format: binding, Synechococcus elongatus; conditions: for binding by the 67 glnA aptamer: concentrations as high as 10 mM
Excerpt: (§1) RNAs were 5′-^32P radiolabeled and subjected to in-line probing analyses, which have been described in detail previously (Soukup et al. Relationship between internucleotide linkage geometry and the stability of RNA. RNA 1999; 5:1308-1325; Regulski E E, Breaker R R. In-line probing analysis of riboswitches. Methods Mol Biol 2008; 419:53-67). Briefly, 5′ triphosphates were removed from the RNAs using alkaline phosphatase (Roche) according to the manufacturer's protocol. The dephosphorylated RNAs were 5′-^32P radiolabeled by incubation with [γ-^32P] ATP and T4 polynucleotide kinase (New England Biolabs), following the manufacturer's directions. Denaturing PAGE (6%) was subsequently employed to purify the RNAs as described above. The radiolabeled RNAs were then incubated at 23° C. in a solution containing 75 mM Tris-HCl (pH 8.3 at 23° C.), 20 mM MgCl2, 100 mM KCl, and various different potential ligands (see results section for full list) at concentrations ranging from 1 μM to 10 mM in most cases. When RNAs were subjected to in-line probing with 100 mM L-glutamate, the amino acid replaced the Tris-HCl as the buffering agent. HCl and NaOH were used to adjust this modified in-line probing solution to pH 8.3.
(§2) After incubating for approximately 40 hours, the products of in-line probing reactions were separated by denaturing 10% PAGE. The gels were then dried and imaged using a Storm 820 PhosphorImager (GE Healthcare). The relative intensities of the various degradation products were quantified using SAFA v1.1 software (Das et al. SAFA: Semi-automated footprinting analysis software for high-throughput quantification of nucleic acid footprinting experiments. RNA 2005; 11:344-354). The bands which modulated the most intensely were used to make KD estimates. In the cases where the concentrations of ligand used were insufficiently high to saturate RNA binding, the data was normalized to KD values that best explained the data assuming a standard one-to-one interaction.

[2] = target: second representative of the glnA motif from a marine metagenomic sequence; experiment: In-line probing of a second glnA motif representative; format: binding; conditions: for binding by the RNA: at 1 mM (data not shown)
Excerpt: as §1
as §2, with “estimates.” for “estimates. In the cases where the concentrations of ligand used were insufficiently high to saturate RNA binding, the data was normalized to KD values that best explained the data assuming a standard one-to-one interaction.”

[3] = target: 83 DP RNA; experiment: In-line probing of 83 DP RNA (Downstream-peptide motif); format: binding, Synechococcus sp. CC9902; conditions: for Kd: 1-to-1 interaction, read-out: apparent KD; for binding by the Downstream-peptide glutamine aptamer: stated in the discussion for both aptamer subtypes, concentration not given at place
Excerpt: as §1
as §2, with “estimates.” for “estimates. In the cases where the concentrations of ligand used were insufficiently high to saturate RNA binding, the data was normalized to KD values that best explained the data assuming a standard one-to-one interaction.”

[4] = test system: 67 glnA mutant RNA construct M1; experiment: In-line probing of 67 glnA mutant M1 (disruptive mutations); format: binding, Synechococcus elongatus; conditions: two disruptive mutations in P2 stem
Protocol: (§3) Pairs of oligonucleotides were used in primer extension reactions to make full-length double-stranded DNA (dsDNA) products to use as templates for in vitro transcription reactions. Primers 1 and 2 were used for 67 glnA, 2 and 3 for Ml, 4 and 5 for M3, 1 and 6 for M2, 1 and 7 for M4, 8 and 9 for 83 DP, 8 and 10 for M5, and 8 and 11 for M6. A 100 μl solution containing 300 pmoles of each primer, 50 mM Tris-HCl (pH 8.3 at 23° C.), 75 mM KCl, 3 mM MgCl2, […] dithiothreitol (DTT), 1 mM of each of the four deoxynucleoside triphosphates (dNTPs), and 8 U/μl of SuperScript II Reverse Transcriptase (Invitrogen) was heated for 2 hours at 42° C. The full length dsDNA was then purified using the QIAquick PCR Purification Kit (QIAgen) following the manufacturer's protocol and was eluted in a volume of 50 […]
(§4) After incubating for approximately 40 hours, the products of in-line probing reactions were separated by denaturing 10% PAGE. […] The relative intensities of the various degradation products were quantified using SAFA v1.1 software (Das et al. SAFA: Semi-automated footprinting analysis software for high-throughput quantification of nucleic acid footprinting experiments. RNA 2005; 11:344-354). […]

[5] = test system: 67 glnA mutant RNA construct M2; experiment: In-line probing of 67 glnA mutant M2 (disruptive mutations); format: binding, Synechococcus elongatus; conditions: two disruptive mutations in P3 stem
Protocol: as §3, §4

[6] = test system: construct M3; experiment: In-line probing of 67 glnA construct M3 (compensatory mutations); format: binding, Synechococcus elongatus
Protocol: as §3, §4

[7] = test system: construct M4; experiment: In-line probing of 67 glnA construct M4 (compensatory mutations); format: binding, Synechococcus elongatus
Protocol: as §3, §4

[8] = test system: M5 RNA; experiment: In-line probing of mutant 83 DP RNA M5 (disrupted pseudoknot); format: binding, Synechococcus sp. CC9902; conditions: two disruptive mutations in the pseudoknot
Protocol: as §3, §4

[9] = target: SK209-52 RNA; experiment: In-line probing of SK209-52 RNA (SAM/SAH motif); format: binding, Roseobacter sp. SK209-2-6; conditions: SAM samples may contain breakdown product SAH, read-out: apparent dissociation constant (KD)
Protocol: RNA constructs were prepared by in vitro RNA transcription RNA using T7 RNA polymerase and the appropriate DNA templates that were created by overlap extension of synthetic DNA oligonucleotides using SuperScript II reverse transcriptase (Invitrogen) as instructed by the manufacturer. RNA transcripts were purified using denaturing (8 M urea) polyacrylamide gel electrophoresis (PAGE). RNAs were eluted from the gel, dephosphorylated using alkaline phosphatase and 5′ radiolabeled with [γ-32P] using methods reported previously (Wang et al. Riboswitches that sense S-adenosylhomocysteine and activate genes involved in coenzyme recycling. Mol Cell 2008, 29:691-702). 5′ 32P-labeled fragments resulting from in-line probing reactions were subjected to denaturing PAGE, imaged and analyzed as previously described (Wang et al. Riboswitches that sense S-adenosylhomocysteine and activate genes involved in coenzyme recycling. Mol Cell 2008, 29:691-702).

[10] = test system: SAM-Chlorobi RNA (four RNAs with different 3′ ends); experiment: In-line probing experiments with SAM-Chlorobi RNA; format: binding, Chlorobium tepidum TLS; conditions: 1 mM
Protocol: Some riboswitches were tested for metabolite binding using in-line probing experiments (Regulski et al. In-line probing analysis of riboswitches. Methods Mol Biol 2008, 419:53-67). RNAs tested were transcribed in vitro from a DNA template using RNA polymerase T7. In the experiments described below, no modulation in gel patterns was observed that would indicate metabolite binding. […] Experiments were performed on the following four RNAs, encoded by Chlorobium tepidum TLS, which have different 3′ ends: Lowercase letters represent G nucleotides that were added to improve transcription yield. The following metabolites were tested at 1 mM: SAM, SAH, methionine, and homocysteine.

[11] = test system: pfl RNA; experiment: In-line probing experiments with a pfl RNA; format: binding, Clostridium acetobutylicum ATCC 824; conditions: 1 mM except where noted
Protocol: Some riboswitches were tested for metabolite binding using in-line probing experiments (Regulski et al. In-line probing analysis of riboswitches. Methods Mol Biol 2008, 419:53-67). RNAs tested were transcribed in vitro from a DNA template using RNA polymerase T7. In the experiments described below, no modulation in gel patterns was observed that would indicate metabolite binding.
Experiments were performed with the following RNA encoded by Clostridium acetobutylicum ATCC 824:
The following metabolites were tested at 1 mM except where noted: AICAR riboside, AICAR ribotide, SAICAR, GAR, pyruvate, guanine (100 μM), hypoxanthine (40 μM), IMP, formate, THF, dihydrofolate, 5-formyl-THF, 10-formyl-THF, methylene-THF, methenyl-THF, methyl-THF, SAICAR, glutamate, glutamine, glycine, serine, aspartate, dUMP, homocysteine, SAM, AICA, CAIR, CoA, acetyl-CoA, alanine, NAD, NADH, NADP, NADPH, dCMP, histidine, D-ribose 5′-phosphate, adenine, D-ribose, NADH, SAICAR, CAIR, glycine, PRPR, ppGpp, cAMP, HMP, ATP (600 μM), CTP (600 μM), GTP (600 μM), UTP (600 μM), AMP, ADP, GMP, GDP, UMP, UDP, uridine, and tryptophan.

[12] = test system: pfl RNA; experiment: RNase protection assay (RNase T1 and V1) with pfl RNA; format: binding, Clostridium acetobutylicum ATCC 824; conditions: shorter incubation time than in-line probing
Protocol: Due to the instability of PRPP, it was also tested in an RNase protection assay with RNase T1 and V1. The use of an RNase permits a shorter incubation time than used for in-line probing.

Compound: NC(=O)CC[C@H](N)C(=O)O [L-glutamine]
- pattern of RNA cleavage products ([1]; 1 mM glutamine added to in-line probing assay containing 100 mM glutamate): produced the pattern of RNA cleavage products expected for glutamine binding
- Kd ([1]; curve expected for a 1-to-1 RNA-ligand interaction (FIG. 30C), read-out: KD): 575 µM
- Kd ([1]; in-line probing, one-to-one interaction, read-out: apparent dissociation constant (KD)): ~575 µM
- Kd [2]: ~150 µM
- Kd ([3]; listed as glutamine): ~5000 µM
- Kd [3]: 5000 µM
- structural modulation upon addition of glutamine [4]: no modulation
- structural modulation upon addition of glutamine [5]: no modulation
- structural modulation in response to glutamine addition [6]: regain structural modulation
- structural modulation in response to glutamine addition [7]: regain structural modulation
- binding to glutamine [8]: does not bind

Compound: O=C(O)CCCC(=O)O [glutaric acid]
- binding by the RNA [2]: rejected

Compound: CC(=O)CC[C@H](N)C(=O)O [(S)-2-amino-5-oxo-hexanoic acid]
- binding by the 67 glnA aptamer ([1]; in-line probing): rejected
- binding by the Downstream-peptide glutamine aptamer [3]: reject

Compound: Cc1ncc(COP(=O)(O)O)c(C=O)c1O [pyridoxal phosphate]
- binding by the RNA [2]: rejected

Compound: NC(=O)CCC[C@H](N)C(=O)O [L-homoglutamine]
- binding by the 67 glnA aptamer ([1]; in-line probing): rejected
- binding by the Downstream-peptide glutamine aptamer [3]: reject

Compound: O=CCCC(=O)O [succinic semialdehyde]
- binding by the RNA [2]: rejected

Compound: NCCCC[C@H](N)C(=O)O [L-lysine]
- binding by the RNA [2]: rejected

Compound: CC(C)(C)OC(=O)[C@@H](N)CCC(N)=O [L-glutamine t-butyl ester]
- binding by the 67 glnA aptamer ([1]; in-line probing): rejected
- binding by the Downstream-peptide glutamine aptamer [3]: neither Ala-Gln nor L-glutamine t-butyl ester are bound

Compound: C[S+](CC[C@H](N)C(=O)[O-])C[C@H]1O[C@@H](n2cnc3c(N)ncnc32)[C@H](O)[C@@H]1O (stereo partly shown) [SAM, S-adenosylmethionine]
- Kd [9]: 8.6 µM and ~8.6 µM
- modulation in gel patterns that would indicate metabolite binding [10]: did not reveal binding

Compound: O=C(O)CCC(=O)O [succinate]
- binding by the RNA [2]: rejected

Compound: O=C(O)CCC(=O)C(=O)O [2-oxoglutarate]
- binding by the RNA [2]: rejected

Compound: CCNC(=O)CC[C@H](N)C(=O)O [L-theanine]
- binding by the 67 glnA aptamer ([1]; in-line probing): rejected

Compound: CC(=O)OC[C@H](N)C(=O)O [O-acetyl-L-serine]
- binding by the 67 glnA aptamer ([1]; in-line probing): rejected

Compound: N[C@@H](CCC(=O)O)C(=O)O [glutamate]
- structural modulation ([1]; in-line probing, 100 mM glutamate as the primary buffering agent): no structural modulation was observed
- binding by the RNA [2]: rejected
- binding by the Downstream-peptide glutamine aptamer [3]: reject

Compound: Nc1ncnc2c1ncn2[C@@H]1O[C@H](CSCC[C@H](N)C(=O)O)[C@@H](O)[C@H]1O [SAH, S-adenosylhomocysteine]
- Kd [9]: ~4.3 µM
- modulation in gel patterns that would indicate metabolite binding [10]: did not reveal binding

Compound: NCCCCN [putrescine]
- binding by the RNA [2]: rejected

Compound: C[C@H](N)C(=O)N[C@@H](CCC(N)=O)C(=O)O [Ala-Gln] (H-Ala-Gln-OH)
- binding by the 67 glnA aptamer ([1]; in-line probing): rejected
- binding by the Downstream-peptide glutamine aptamer [3]: neither Ala-Gln nor L-glutamine t-butyl ester are bound

Compound: NC(=O)CCCC(=O)O [5-amino-5-oxopentanoic acid]
- binding by the 67 glnA aptamer ([1]; in-line probing): rejected
- binding by the Downstream-peptide glutamine aptamer [3]: loss of binding

Compound: NC(=O)C[C@H](N)C(=O)O [L-asparagine]
- binding by the 67 glnA aptamer ([1]; in-line probing): rejected

Compound: NCCCC(=O)O [γ-aminobutyric acid]
- binding by the RNA [2]: rejected

Compound: O=P(O)(O)OC[C@H]1O[C@H](OP(=O)(O)OP(=O)(O)O)[C@H](O)[C@@H]1O [PRPP]
- modulation in gel patterns that would indicate metabolite binding [11]: did not reveal evidence of binding
- change in degradation patterns [12]: no change in degradation patterns was detected

Compound: NC(=O)CC[C@@H](N)C(=O)O [D-glutamine]
- affinity relative to its more common isomer (L-glutamine) ([1]; in-line probing): approximately 1/10
- fold tighter binding of L-glutamine compared to D-glutamine ([1]; in-line probing): 10 fold
- binding to 83 DP RNA ([3]; concentrations up to 10 mM): no binding was detected

Compound: NC(=O)CC[C@H](N)CC(=O)O [L-β-homo glutamine]
- binding by the 67 glnA aptamer ([1]; in-line probing): rejected

Compound: N=C(N)NCCCCN [agmatine]
- binding by the RNA [2]: rejected
